Experimental findings from patent publication US5629340A, “Angiogenesis inhibitor and novel compound” (Tsumura & Co., priority 1993, dated 1997) are described below.

Where two headings read alike, the source gives them in different places.

Assay [1] has as its system HOME cells (human omental capillary endothelial cells). Put plainly: Tube formation of HOME cells induced by TGFα on type-1 collagen gel. It is filed as cell-based. As to conditions: for Tube formation remaining (%) at 10 µg/mL: Homo sapiens, Endothelial cell, final concentration 10 μg/ml, read-out: inhibition of tube formation induced by TGFα ("inhibited to"); for Total length of lumen/HPF: Table 7, non-treatment 0.551, control 1.561; for Total length of lumen/HPF / Total tube length/HPF: compound 10 μg/ml, TGFα 10 ng/ml, 3 days; for Total tube length/HPF: Table 6, non-treatment 0.616, control 2.045. The text has this:
(§1) An in-vitro angiogenesis models have been established, using human omental capillary endothelial cells (hereinafter referred to as "HOME cells"). One is the angiogenesis models in a process of wound healing formed when the HOME cells are damaged with a razor blade. Another one is a model of HOME cell migration, synthesis of a tissue plasminogen activation factor (t-PA), and HOME-cell tube formation, accelerated by TGFα.
The activity of the active ingredients to the tube formation of the HOME cells induced by TGFα was determined.
At first, 8 volume of a type 1 collagen solution (manufactured by Nitta Gelatin .), 1 volume of 10×M-199 and 1 volume of a reconstituted buffer) [200 mM Hepes, 0.05N sodium hydroxide and 260 mM sodium hydrogen carbonate] were mixed under ice cooling. The mixture was placed on plastic dishes (30 mm diameter, manufactured by Corning.) and allowed to stand still at 37° C. to make gel, thereby preparing a type-1 collagen gel.
Subsequently, the HOME cells were suspended in 10% FBS containing M-199 medium and then dispersed on the type 1 collagen gel mentioned above and incubated at 37° C.
When the HOME cells were incubated to confluent , they were transferred to 1% human serum containing M-199 mediums to which compounds (1), (2) and (4) to (12) (a final concentration: 10 μg/ml) were individually added together with TGFα (final concentration 10 ng/ml). These mediums were incubated for 3 days.
The HOME cells were also transferred to a 1% human serum containing M-199 medium with TGFα alone to prepare a control group and transferred to a 1% human serum containing M-199 medium to prepare a non-treatment group. They were also incubated for 3 days.
Two days after the incubation started, the culture mediums were exchanged. At three days, photographic picture of each dish was taken by a video camera (R5000H, Fuji, Tokyo), using a phase-contrast microscope at 200 magnification of the object. 8 views were taken for each dishes. The total tube length per one view formed by the HOME cells was measured by using a Cosmozone IS image analyzer (manufactured by Nikon).

The subject of assay [2] is M-5076 (mouse ovarian reticulo sarcoma). Put plainly: In-vivo anti-tumor activity, M-5076 transplanted in C57BL6 mouse. As to conditions: for Relative tumor proliferation rate (Trv/Crv(%)): day 21, control 100.0; for anti-tumor activity in vivo: in words. Here is the method: In-vivo anti-tumor activity of the compounds of the present invention was tested.
M-5076 (mouse ovarian reticulo sarcoma, mouse ovary cancer) was intraperitoneally (i.p.) inoculated in C57BL6 mouse, and maintained by ip passage. The obtained ascites tumor cells werediluted with PBS (-) to cellular number of 2×10^7 cells/ml. 50 μl of the dilute solution (cellular number: 1×10^6) was subcutaneously (s.c.) transplanted to the right dorsal part of C57BL6 mouse (6 week old, female). From 7 days after the tumor cell inocutation, a sample was administrated to the mouse. The sample was prepared by suspending compounds (1) and (8) in 2% Tween 80 PBS (-) solution. The suspension was subcutaneously injected to a mouse in a dose of 100 μl per mouse. Three dosages, i.e., 400 mg/kg, 200 mg/kg and 100 mg/kg were set for the injection.
Mitomycin C (MMC) and Fumagillin Were employed in positive controls. MMC was intravascularly injected 4 times every two day. Other test samples and Fumagillin were intravascularly injected 6 times in total in a rate of 3 times/week. The test was carried out using N=9 in controls and N=5 in other groups.
Twenty one days after the inocutation of the tumor cells (14 days after the next day of the initiation of the sample injection), a relative tumor proliferation rate were examined to determine the anti-tumor effect of the samples.
The relative tumor proliferation rate are indicated by the following equation.
A significant difference test was performed by the Mann-Whitney U-Test. [formula]

Assay [3] relates to HOME cells (human omental capillary endothelial cells). Put plainly: Migration of wounded HOME cells (wound healing model), with or without TGFα. It is filed as cell-based. Set-up: activity: dose or concentration left out as unconfirmed. The settings on record: Endothelial cell; for activity: 24 h, compound added, read-out: Cell-migration rate (% of non-treatment group); for inhibition at 10 µg/mL: TGFα-free medium, final concentration 10 μg/ml, approximately.
Excerpt: as §1
Compound(s) as an active ingredient of the angiogenesis inhibitor of the present invention (hereinafter also simply refer:red to as "compound(s)") were evaluated with respect to an activity to cell migration with human HOME cells in which a wound healing had been made by a razor blade, and cell migration activity accelerated by TGFα.
The HOME cells to be used in this experiment were isolated from human omental fatty tissues and cultured in a M-199 medium containing 10% fetal bovine serum (FBS) over 3 to 5 generations.
TGFα was obtained from Collaborative Research Inc., Bedford, Ma.
The HOME cells were cultured as a monolayer on a collagen-coated plastic dish (35 mm .phi.) to confluent. The thus obtained HOME cells were wounded with a razor blade and then washed twice with a phosphate buffer saline solution (PBS). […] Further, HOME cells were cultured in 1% human serum containing M-199 medium with neither active ingredient nor TGFα at 37° C for 24 hours to prepare a non-treatment group.
On the dish on which the HOME cells were cultured, the numbers of migrated HOME cells were counted, which migrated to the exposed portion of the Collagen-coated plastic dish. A cell-migration rate was calculated, regarding the cell migration numbers of the non-treatment group as 100%.

The subject of assay [4] is HOME cells co-cultured with human esophagus cancer cells (TE-1). Put plainly: Tube formation of HOME cells induced by human cancer cells (co-culture with TE-1 cells). The class given is cell-based. As to conditions: Table 8; compound 10 μg/ml; TE-1 co-culture; non-treatment 0.348, control 1.551. Here is the method:
In a co-culture of the HOME cells and human cancer cells, the activity of the compounds to the tube formation of the HOME cells induced by the human cancer cells was determined. This experiment was carried out in accordance with the co-culture method described in Morisaki, Saito, et al., "Co-culture test system of vascular endothelial cells and tunica media smooth muscle cells".
The HOME cells on the type-1 collagen gel prepared in Experiment 2 and human esophagus cancer cells (TE-1) were co-cultured to assemble a tube formation assay system. More specifically, using a plate (manufactured by Corning Co.,) having 6 holes (each hole size: 38×7 mm) in the outer vessel, 2 ml of 10% FBS containing M-199 medium was placed to each hole. The TE-1 cells were cultured in this medium. Thereafter, the medium was replaced with 2 ml of 1% FBS containing M-199 mediums which respectively contained compounds (1) and (8). Also, the medium was replaced with 1% FBS containing M-199 medium alone.
On the other hand, culture plates equipped with a Millipore filter at the inner vessel (size: 30×7 mm) bottom, were prepared. The type-1 collagen gel was placed in the inner vessel. On each of the type-1 collagen gel, 2 ml of the HOME cells suspension in the 10% FBS containing M-199 medium were planted. […]
The total tube length in the HOME cells cultured was measured in the same manner as in Experiment 2.

Where [5] appears, read: 100 mg/kg, 6 injections, 3 times/week.
Where [6] appears, read: 200 mg/kg, 6 injections, 3 times/week.
[7] abbreviates: 400 mg/kg, 6 injections, 3 times/week.

As to `COc1cc(-c2oc(-c3ccc(O)c(OC)c3)c(CC(C)C)c2CC(C)C)ccc1O` [Compound 10, 2,5-bis(4'-hydroxy-3'-methoxyphenyl)-3,4-diisobutylfuran], in assay [1], the Tube formation remaining (%) at 10 µg/mL was 50 to 80% and the “Total length of lumen/HPF” value was 0.655 10^3 μm.
In the case of `CO[C@@H]1[C@H](OC(=O)/C=C/C=C/C=C/C=C/C(=O)O)CC[C@]2(CO2)[C@H]1[C@@]1(C)O[C@@H]1CC=C(C)C` [Fumagillin, reference compound], the “Relative tumor proliferation rate (Trv/Crv(%))” value in assay [2] (30 mg/kg, 6 injections, 3 times/week) is 41.7%.
As to `COc1cc(-c2oc(C)c(-c3ccc(O)c(OC)c3)c2C)ccc1O` [Compound 9, 2,4-bis(4-hydroxy-3-methoxyphenyl)-3,5-dimethylfuran], the activity in assay [3] (TGFα Free) was 63.3%. Besides, the activity in assay [3] (TGFα added) stood at 73%. For the same compound, in assay [1], the Tube formation remaining (%) at 10 µg/mL fell in the range of 50 to 80% and the “Total length of lumen/HPF” value is recorded as 0.496 10^3 μm.
Turning to `COc1cc(-c2oc(-c3ccc(O)c(OC)c3)c(C)c2C)ccc1O` [Compound 1], the activity in assay [3] (TGFα Free) is 13.9%; in assay [3] (TGFα added) it was 24%. In assay [3], the inhibition (usually the percentage by which the read-out fell short of the control) at 10 µg/mL was 50 to 86%. In addition, the Tube formation remaining (%) at 10 µg/mL in assay [1] fell in the range of 50 to 80%. The “Total length of lumen/HPF” value in assay [1] is given as 0.337 10^3 μm; in assay [4], 0.250 10^3 μm. Moreover, the “Relative tumor proliferation rate (Trv/Crv(%))” value in assay [2] (setting [5]) was determined as 37.1%; in assay [2] (setting [6]), 37.4%; in assay [2] (setting [7]), 51.3%. Also, the “anti-tumor activity in vivo” value in assay [2] is “significant anti-tumor activity in vivo”.
`Cc1c(-c2ccc3c(c2)OCCO3)oc(-c2ccc3c(c2)OCCO3)c1C` [Compound 7, 3,4-dimethyl-2,5-bis(3,4-ethylenedioxyphenyl)furan]: the activity in assay [3] (TGFα Free) is 33.3%. In addition, the activity in assay [3] (TGFα added) came out at 31.4%. Besides, in assay [1], the Tube formation remaining (%) at 10 µg/mL was in the range of 40 to 60% and the “Total tube length/HPF” value is listed as 1.195 10^3 μm.
`COc1ccc(-c2oc(-c3ccc(OC)c(O)c3)c(C)c2C)cc1O` [Compound 8, 2,5-bis(3'-hydroxyl-4'-methoxyphenl)-3,4-dimethylfuran]: the activity in assay [3] (TGFα Free) amounted to 69.4%; in assay [3] (TGFα added) it was 44.2%. The compound further yielded an inhibition at 10 µg/mL in assay [3] of 50 to 86%. Besides, in assay [1], the Tube formation remaining (%) at 10 µg/mL fell in the range of 50 to 80%. Further, the “Total length of lumen/HPF” value in assay [1] is 0.422 10^3 μm; in assay [4], 0.277 10^3 μm. Further, the “Relative tumor proliferation rate (Trv/Crv(%))” value was 59.4% in assay [2] (setting [5]), 41.4% in assay [2] (setting [6]) and 37.4% in assay [2] (setting [7]). The “anti-tumor activity in vivo” value in assay [2] was “significant anti-tumor activity in vivo”.
Consider `COc1cc(-c2oc(-c3ccc(OC(C)=O)c(OC)c3)c(C)c2C)ccc1OC(C)=O` [Compound 4], for which the figures for the activity in assay [3] (TGFα Free) and in assay [3] (TGFα added) were 50.2% and 60.4%, respectively. The “Total tube length/HPF” value in assay [1] is 2.127 10^3 μm.
For the compound `COc1cc(-c2oc(-c3cc(OC)c(O)c(OC)c3)c(C)c2C)cc(OC)c1O` [Compound 11, 2,5-bis(4'-hydroxy-3',5'-dimethoxyphenyl)-3,4-dimethylfuran], the activity in assay [3] (TGFα Free) is 81.2%; in assay [3] (TGFα added), 56.1%. Also, the Tube formation remaining (%) at 10 µg/mL in assay [1] was in the range of 50 to 80%. The “Total length of lumen/HPF” value in assay [1] was 0.817 10^3 μm.
`CO[C@@]12[C@H](COC(N)=O)C3=C(C(=O)C(C)=C(N)C3=O)N1C[C@@H]1N[C@@H]12` [MMC, Mitomycin C, reference compound]: the “Relative tumor proliferation rate (Trv/Crv(%))” value in assay [2] (3.2 mg/kg, intravascular, 4 times every two days) was found to be 7.9%.
For the compound `CCOC(=O)c1c(-c2ccc(O)c(OC)c2)oc(-c2ccc(O)c(OC)c2)c1C(=O)OCC` [Compound 12, Diethyl 2,5-bis(4'-hydroxy-3'-methoxyphenyl)furan-3,4-dicarboxylate], the activity was 72.7% in assay [3] (TGFα Free) and 58.4% in assay [3] (TGFα added). Moreover, in assay [1], the Tube formation remaining (%) at 10 µg/mL was in the range of 50 to 80%. In assay [1], the “Total length of lumen/HPF” value was 0.736 10^3 μm.
As to `Cc1c(-c2ccc3c(c2)OCO3)oc(-c2ccc3c(c2)OCO3)c1C` [Compound 6, 3,4-dimethyl-2,5-bis(3,4-methylenedioxyphenyl)-furan], in assay [3] (TGFα Free), the activity stood at 45.2%. For the same compound, in assay [3] (TGFα added), the activity is 59.9%. The compound further gave an inhibition at 10 µg/mL in assay [3] of 50 to 86%. In addition, in assay [1], the Tube formation remaining (%) at 10 µg/mL was 40 to 60% and the “Total tube length/HPF” value is 1.240 10^3 μm.
Take `COc1ccc(-c2oc(-c3ccc(OC)c(OC)c3)c(C)c2C)cc1OC` [Compound 2]: the activity in assay [3] (TGFα Free) came out at 69%. Also, the activity in assay [3] (TGFα added) came out at 68.2%. Further, in assay [1], the Tube formation remaining (%) at 10 µg/mL is 40 to 60% and the “Total tube length/HPF” value was 1.115 10^3 μm.
As for `Cc1c(-c2ccc(O)c(O)c2)oc(-c2ccc(O)c(O)c2)c1C` [Compound 3, 3,4-dimethyl-2,5-bis(3,4-dihydroxyphenyl)furan], the activity in assay [3] (TGFα Free) amounted to 52.7%; in assay [3] (TGFα added), 73.1%.
